Data taken from ChEMBL document CHEMBL1201862, “PubChem BioAssay data set” (2004).
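1) Cells in 96-well plates. 2) Compound, 48 h, 5 concentrations. 3) Linear interpolation between surrounding doses. 4) Unreached endpoint = highest concentration. Here, GI50 denotes the concentration required for 50% inhibition of growth.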 Active and inactive are the calls of the source. Cut-off read from the data, not from the text of the source: active = GI50 up to about 1.1 µM and inactive = higher. Square brackets hold non-standard residues; d marks the D form. Peptide text beside a SMILES is read from it. pGlu = O=C1CC[CH](C(=O)O)N1

Experiments:
Experiment in all cases: NCI tumour cell line growth inhibition, 48 h
PC-3 = tested on: PC-3
SNB-75 = tested on: SNB-75
HL-60 = tested on: HL-60
T47D = tested on: T47D
OVCAR-8 = tested on: OVCAR-8
A549 = tested on: A549
HCT-15 = tested on: HCT-15
HCC 2998 = tested on: HCC 2998
NCI-H23 = tested on: NCI-H23
TK-10 = tested on: TK-10
M14 = tested on: M14
COLO 205 = tested on: COLO 205
786-0 = tested on: 786-0
U-251 = tested on: U-251
MDA-MB-435 = tested on: MDA-MB-435
SW-620 = tested on: SW-620
ACHN = tested on: ACHN
NCI-H460 = tested on: NCI-H460
SNB-19 = tested on: SNB-19
UO-31 = tested on: UO-31

Compound	GI50 (PC-3)	GI50 (SNB-75)	GI50 (HL-60)	GI50 (T47D)	GI50 (OVCAR-8)	GI50 (A549)	GI50 (HCT-15) [µM]	GI50 (HCC 2998)	GI50 (NCI-H23)	GI50 (TK-10)	GI50 (M14)	GI50 (COLO 205)	GI50 (786-0)	GI50 (U-251)	GI50 (MDA-MB-435)	GI50 (SW-620)	GI50 (ACHN)	GI50 (NCI-H460)	GI50 (SNB-19)	GI50 (UO-31)
CO/C(N)=C(C#N)/N=C/c1cccnc1	> 100 µM (inactive)	> 100 µM (inactive)	> 100 µM (inactive)	> 100 µM (inactive)	> 100 µM (inactive)	> 100 µM (inactive)	> 100	> 100 µM (inactive)	> 100 µM (inactive)	> 100 µM (inactive)	> 100 µM (inactive)	> 100 µM (inactive)	> 100 µM (inactive)	> 100 µM (inactive)	> 100 µM (inactive)	> 100 µM (inactive)				
COC(=O)[C@]1(c2cc3ccccc3n2S(=O)(=O)c2ccccc2)CC2CCC1NC2 (some centres undefined)	12.1 µM (inactive)	12.7 µM (inactive)	2.85 µM (inactive)	12.2 µM (inactive)	14.9 µM (inactive)	12.6 µM (inactive)	15.6	9.38 µM (inactive)	15.2 µM (inactive)	31.8 µM (inactive)	14.2 µM (inactive)	14.4 µM (inactive)	14.3 µM (inactive)	13.6 µM (inactive)	14.2 µM (inactive)	14.5 µM (inactive)	21.7 µM (inactive)	14 µM (inactive)	14.8 µM (inactive)	10.5 µM (inactive)
O=C1CSC(c2c[nH]c3ccccc23)N1c1cccc([N+](=O)[O-])c1 (centres undefined)	36.1 µM (inactive)	43.7 µM (inactive)	> 100 µM (inactive)	> 100 µM (inactive)	> 100 µM (inactive)	> 100 µM (inactive)	42.9	> 100 µM (inactive)	> 100 µM (inactive)	81.8 µM (inactive)	> 100 µM (inactive)	> 100 µM (inactive)	> 100 µM (inactive)	> 100 µM (inactive)	38.3 µM (inactive)	> 100 µM (inactive)		28.8 µM (inactive)	> 100 µM (inactive)	42.7 µM (inactive)
CN(C)Cc1cc(C(=O)/C=C/c2cccc(Cl)c2)cc(CN(C)C)c1O	8.99 µM (inactive)	1.95 µM (inactive)	1.69 µM (inactive)	4.18 µM (inactive)	8.55 µM (inactive)	11.8 µM (inactive)	2.84	10.6 µM (inactive)	14.3 µM (inactive)	9.2 µM (inactive)	3.37 µM (inactive)	1.77 µM (inactive)	3.29 µM (inactive)	2.74 µM (inactive)	3.48 µM (inactive)	4.41 µM (inactive)	2.99 µM (inactive)	3.05 µM (inactive)	24.5 µM (inactive)	5.78 µM (inactive)
CC(NC(=O)C(Cc1c[nH]cn1)NC(=O)C1CCC(=O)N1)C(N)=O (stereo not drawn) ([pGlu]-His-Ala-NH2; configuration not given here)	> 100 µM (inactive)	> 100 µM (inactive)	> 100 µM (inactive)	> 100 µM (inactive)	> 100 µM (inactive)	> 100 µM (inactive)		> 100 µM (inactive)	> 100 µM (inactive)	> 100 µM (inactive)	> 100 µM (inactive)	> 100 µM (inactive)	> 100 µM (inactive)	> 100 µM (inactive)	> 100 µM (inactive)	> 100 µM (inactive)	> 100 µM (inactive)	> 100 µM (inactive)	> 100 µM (inactive)	> 100 µM (inactive)
O=C(O)CSc1nnc(COc2ccc(Cl)cc2)n1-c1ccccc1	> 100 µM (inactive)	> 100 µM (inactive)	> 100 µM (inactive)	> 100 µM (inactive)	> 100 µM (inactive)	> 100 µM (inactive)	> 100	> 100 µM (inactive)	> 100 µM (inactive)	> 100 µM (inactive)	> 100 µM (inactive)	> 100 µM (inactive)	> 100 µM (inactive)	> 100 µM (inactive)	> 100 µM (inactive)	> 100 µM (inactive)	> 100 µM (inactive)	> 100 µM (inactive)	> 100 µM (inactive)	> 100 µM (inactive)
Brc1cccc[n+]1-c1ccc2cc(-[n+]3ccccc3Br)ccc2c1	> 100 µM (inactive)		28.6 µM (inactive)	22.3 µM (inactive)	43 µM (inactive)	38.9 µM (inactive)	32.5	46.1 µM (inactive)	> 100 µM (inactive)	18.3 µM (inactive)	> 100 µM (inactive)	31 µM (inactive)	26.4 µM (inactive)	15.6 µM (inactive)	80.9 µM (inactive)	44.5 µM (inactive)	17.7 µM (inactive)	30.2 µM (inactive)	72.8 µM (inactive)	18.1 µM (inactive)
O=C(CCC=C(S(=O)(=O)c1ccccc1)S(=O)(=O)c1ccccc1)c1ccccc1	3.64 µM (inactive)	3.61 µM (inactive)	1.86 µM (inactive)	5.43 µM (inactive)	4.58 µM (inactive)	17.1 µM (inactive)	5.98	7.66 µM (inactive)		6.38 µM (inactive)	7.1 µM (inactive)	7.11 µM (inactive)	3.21 µM (inactive)	4.03 µM (inactive)	5.25 µM (inactive)	3.4 µM (inactive)	5.93 µM (inactive)	12.9 µM (inactive)	13.6 µM (inactive)	6.15 µM (inactive)
O=C(c1ccco1)N(C(=S)OCCOc1ccccc1)c1ccccc1	24.1 µM (inactive)		24.3 µM (inactive)	20.5 µM (inactive)	19.8 µM (inactive)	30.8 µM (inactive)	22.3	21 µM (inactive)	21.3 µM (inactive)	20.9 µM (inactive)	19.5 µM (inactive)	21 µM (inactive)	19.7 µM (inactive)	16.5 µM (inactive)	16.2 µM (inactive)	20.5 µM (inactive)	23 µM (inactive)	21.9 µM (inactive)	26.7 µM (inactive)	15.7 µM (inactive)
Cc1ccc(/C=c2\cc3oc(=O)c4cccc(c4-3)c2=O)cc1	> 100 µM (inactive)	> 100 µM (inactive)	39.1 µM (inactive)	> 100 µM (inactive)	97.7 µM (inactive)		> 100	> 100 µM (inactive)	> 100 µM (inactive)	> 100 µM (inactive)	> 100 µM (inactive)	> 100 µM (inactive)	> 100 µM (inactive)	63.7 µM (inactive)	> 100 µM (inactive)	> 100 µM (inactive)	> 100 µM (inactive)	> 100 µM (inactive)	> 100 µM (inactive)	> 100 µM (inactive)
Cc1cc(S(=O)(=O)Nc2nc(N)n[nH]2)c(Cl)cc1Cl	> 10 µM (inactive)	> 10 µM (inactive)	> 10 µM (inactive)	> 10 µM (inactive)	> 10 µM (inactive)	> 10 µM (inactive)	> 10	> 10 µM (inactive)	> 10 µM (inactive)	> 10 µM (inactive)	> 10 µM (inactive)	> 10 µM (inactive)	> 10 µM (inactive)	> 10 µM (inactive)	> 10 µM (inactive)	> 10 µM (inactive)	> 10 µM (inactive)	> 10 µM (inactive)	> 10 µM (inactive)	
Oc1c(CN2CCOCC2)ccc2cccnc12	> 10 µM (inactive)	> 10 µM (inactive)		7.41 µM (inactive)	> 10 µM (inactive)	> 10 µM (inactive)	4.59	> 10 µM (inactive)	> 10 µM (inactive)	> 10 µM (inactive)	> 10 µM (inactive)	> 10 µM (inactive)	> 10 µM (inactive)	> 10 µM (inactive)	> 10 µM (inactive)	> 10 µM (inactive)	> 10 µM (inactive)	4.63 µM (inactive)	> 10 µM (inactive)	8.38 µM (inactive)
CCN1C(c2ccccc2)=CC(c2ccccc2)(C(Cl)(Cl)Cl)C=C1c1ccccc1	20.6 µM (inactive)	5.06 µM (inactive)	1.1 µM (active)	0.44 µM (active)	6.49 µM (inactive)	32.4 µM (inactive)	42.9	3.04 µM (inactive)	8.81 µM (inactive)	17.7 µM (inactive)	4.35 µM (inactive)		9.44 µM (inactive)	6.01 µM (inactive)	2.74 µM (inactive)	7.82 µM (inactive)	24.9 µM (inactive)	7.5 µM (inactive)	4.46 µM (inactive)	34.6 µM (inactive)
Nc1nc(Cl)cc(NCC2(CO)COC2)n1	> 100 µM (inactive)	> 100 µM (inactive)	> 100 µM (inactive)	53.8 µM (inactive)	> 100 µM (inactive)	> 100 µM (inactive)	> 100	> 100 µM (inactive)	> 100 µM (inactive)	> 100 µM (inactive)		> 100 µM (inactive)	> 100 µM (inactive)	> 100 µM (inactive)	> 100 µM (inactive)	> 100 µM (inactive)	> 100 µM (inactive)	> 100 µM (inactive)		> 100 µM (inactive)
C[C@H](CCC1=NCCN1)[C@H]1CC[C@H]2[C@@H]3CC[C@@H]4C[C@H](O)CC[C@]4(C)[C@H]3CC[C@]12C	4.94 µM (inactive)	5.07 µM (inactive)		13.1 µM (inactive)	12 µM (inactive)	8 µM (inactive)	18.5	5.15 µM (inactive)	15 µM (inactive)	7.74 µM (inactive)	2.49 µM (inactive)	1.95 µM (inactive)	2.37 µM (inactive)	6.05 µM (inactive)	4.53 µM (inactive)	6.84 µM (inactive)	7.91 µM (inactive)	2.91 µM (inactive)	13.9 µM (inactive)	14.2 µM (inactive)
